{"source": "patent US20250170136A1", "about": "“1,2,4-TRIAZIN-3(2H)-ONE COMPOUNDS FOR THE TREATMENT OF HYPERPROLIFERATIVE DISEASES” (BAYER AKTIENGESELLSCHAFT, priority 2019, published 2025)", "key": {"[1]": {"biological_target": "human full length PDE3A (Homo sapiens (Human), UniProt Q14432)", "sequence (Q14432 whole entry)": "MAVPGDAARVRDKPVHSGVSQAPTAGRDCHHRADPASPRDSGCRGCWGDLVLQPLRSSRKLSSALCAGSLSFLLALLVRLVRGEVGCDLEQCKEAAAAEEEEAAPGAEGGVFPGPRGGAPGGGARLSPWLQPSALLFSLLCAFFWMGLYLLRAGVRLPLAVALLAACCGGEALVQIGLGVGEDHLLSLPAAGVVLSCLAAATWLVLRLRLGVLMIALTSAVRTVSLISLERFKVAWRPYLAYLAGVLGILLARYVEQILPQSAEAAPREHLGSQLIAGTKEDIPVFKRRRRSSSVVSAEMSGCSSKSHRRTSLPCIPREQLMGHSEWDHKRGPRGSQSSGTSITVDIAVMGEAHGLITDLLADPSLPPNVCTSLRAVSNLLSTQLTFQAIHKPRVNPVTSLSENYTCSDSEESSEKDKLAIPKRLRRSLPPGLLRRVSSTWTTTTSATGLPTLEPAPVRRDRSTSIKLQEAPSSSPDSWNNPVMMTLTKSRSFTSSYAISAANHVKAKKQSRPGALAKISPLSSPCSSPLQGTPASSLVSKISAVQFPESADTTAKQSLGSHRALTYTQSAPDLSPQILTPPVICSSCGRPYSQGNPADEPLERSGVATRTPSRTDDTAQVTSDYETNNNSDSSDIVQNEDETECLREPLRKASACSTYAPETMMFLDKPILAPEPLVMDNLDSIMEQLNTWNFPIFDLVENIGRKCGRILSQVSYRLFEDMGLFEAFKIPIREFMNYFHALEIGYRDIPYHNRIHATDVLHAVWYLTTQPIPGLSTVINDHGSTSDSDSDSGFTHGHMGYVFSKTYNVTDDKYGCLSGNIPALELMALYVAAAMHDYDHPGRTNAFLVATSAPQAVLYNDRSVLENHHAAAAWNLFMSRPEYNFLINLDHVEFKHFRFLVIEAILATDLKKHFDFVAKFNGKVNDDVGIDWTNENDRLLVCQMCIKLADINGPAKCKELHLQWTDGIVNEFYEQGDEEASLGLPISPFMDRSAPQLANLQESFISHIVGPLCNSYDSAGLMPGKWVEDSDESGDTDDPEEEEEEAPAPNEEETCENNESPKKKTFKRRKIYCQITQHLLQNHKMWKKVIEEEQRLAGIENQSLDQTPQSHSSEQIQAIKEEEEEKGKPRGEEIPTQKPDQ", "test": "PDE3A enzyme inhibition (3H-cAMP Scintillation Proximity Assay)", "type": "biochemical", "conditions": "Sf9 cell extract, 60 min room temperature", "procedure": "(§1) The commercially available 3H-cAMP Scintillation Proximity Assay (SPA, Perkin Elmer) system was used for enzyme inhibition studies. For the determination of the in vitro effect of example compounds on the PDE3A reactions 2 μl of the respective example compound solution in DMSO (serial dilutions) were placed in wells of microtiter plates (Isoplate-96/200W; Perkin Elmer). 50 μl of a dilution of PDE3A cell extract from Sf9 cells overexpressing human full length PDE3A (SB Drug Discovery, UK) in buffer A (50 mM Tris/HCl pH 7.5, 8.3 mM MgCl2, 1.7 mM EDTA, 0.2% BSA) was added. The dilution of the PDE3A cell extract was chosen such that the reaction kinetics was linear and less than 70% of the substrate was consumed (typical dilution 1:5000). The reaction was started by addition of 50 μl (0.025 μCi) of 1:2000 in buffer A w/o BSA diluted substrate [8-3H]adenosine 3′, 5′-cyclic phosphate (1 μCi/μl; Perkin Elmer). After incubation at room temperature for 60 min, the reaction was stopped by addition of 25 μl of a suspension containing 18 mg/ml yttrium scintillation proximity beads (Perkin Elmer) in water. The microtiter plates were sealed and measured in a Microbeta scintillation counter (PerkinElmer Wallac). IC50 values were determined from sigmoidal curves by plotting percentage PDE3A activity vs log compound concentration."}, "[2]": {"biological_target": "human full length PDE3B (Homo sapiens (Human), UniProt Q13370)", "sequence (Q13370 whole entry)": "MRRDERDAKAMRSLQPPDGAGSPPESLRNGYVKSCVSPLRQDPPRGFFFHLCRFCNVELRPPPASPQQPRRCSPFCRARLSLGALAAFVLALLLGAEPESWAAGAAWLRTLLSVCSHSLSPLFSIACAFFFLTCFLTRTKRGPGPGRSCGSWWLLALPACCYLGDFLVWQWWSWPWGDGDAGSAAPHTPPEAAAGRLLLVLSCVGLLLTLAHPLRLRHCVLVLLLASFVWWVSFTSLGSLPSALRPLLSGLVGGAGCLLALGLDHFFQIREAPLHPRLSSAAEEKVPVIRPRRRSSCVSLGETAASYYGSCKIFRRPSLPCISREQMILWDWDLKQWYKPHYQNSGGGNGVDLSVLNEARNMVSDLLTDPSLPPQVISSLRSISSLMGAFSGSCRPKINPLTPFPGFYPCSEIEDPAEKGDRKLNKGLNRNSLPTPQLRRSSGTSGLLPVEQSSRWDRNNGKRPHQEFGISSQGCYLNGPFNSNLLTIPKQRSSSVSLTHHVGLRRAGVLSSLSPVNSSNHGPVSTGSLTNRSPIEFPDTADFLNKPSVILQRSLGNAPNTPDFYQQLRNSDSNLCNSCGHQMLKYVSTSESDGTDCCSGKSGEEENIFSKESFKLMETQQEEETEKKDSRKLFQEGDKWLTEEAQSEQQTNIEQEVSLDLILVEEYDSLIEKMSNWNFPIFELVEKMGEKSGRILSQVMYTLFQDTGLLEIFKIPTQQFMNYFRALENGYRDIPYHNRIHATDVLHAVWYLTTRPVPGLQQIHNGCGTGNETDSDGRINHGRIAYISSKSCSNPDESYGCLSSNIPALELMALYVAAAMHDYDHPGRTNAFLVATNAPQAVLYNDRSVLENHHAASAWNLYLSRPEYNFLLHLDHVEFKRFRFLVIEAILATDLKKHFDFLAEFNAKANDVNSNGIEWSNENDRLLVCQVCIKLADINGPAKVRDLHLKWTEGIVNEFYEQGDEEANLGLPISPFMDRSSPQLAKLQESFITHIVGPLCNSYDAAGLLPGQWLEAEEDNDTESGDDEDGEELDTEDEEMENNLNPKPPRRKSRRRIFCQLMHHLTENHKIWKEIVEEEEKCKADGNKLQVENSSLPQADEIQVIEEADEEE", "test": "PDE3B enzyme inhibition (3H-cAMP Scintillation Proximity Assay)", "type": "biochemical", "conditions": "Sf9 cell extract, 60 min room temperature", "procedure": "as §1, with “PDE3B” for “PDE3A”, “1:6000).” for “1:5000).”"}, "[3]": {"test": "In vivo pharmacokinetics in mice (i.v.)", "set-up": "species or system female CD-1 mice", "conditions": "Mouse/female/CD1, 0.5 mg/kg i.v., PEG400 60% + Water 35% + EtOH 5%", "procedure": "(§2) For in vivo pharmacokinetic experiments test compounds were administered to female CD-1 mice, male Wistar rats, Beagle dogs or Cynomolgus monkeys intravenously at doses of 0.3 to 1 mg/kg formulated as solutions using solubilizers such as PEG400 in well-tolerated amounts.\n(§3) Studies may also have been performed as cassette administrations of up to 3 compounds given together simultaneously in low doses.\n(§4) For pharmacokinetics after intravenous administration test compounds were given in the female mice and male rat as i.v. bolus and in dogs and monkeys as short term infusion (15 min). Blood samples were taken e.g. at 2 min, 8 min, 15 min, 30 min, 45 min, 1 h, 2 h, 4 h, 6 h, 8 h and 24 h after dosing from the vena jugularis (mouse, rat) or vena saphena (dog, monkey). […] PK parameters were calculated by non-compartmental analysis using a PK calculation software (e.g. Phoenix WinNonlin®, Certara USA, Inc.).\n(§5) PK parameters derived from concentration-time profiles after i.v.: CLplasma (in L/kg/h): Total plasma clearance of test compound calculated by dose (in μg/kg) divided by area under the concentration-time curve from t=0 h to infinity (extrapolated) (AUCinf in μg*h/L); CLblood: Total blood clearance of test compound: CLplasma*Cp/Cb (in L/kg/h) with Cp/Cb being the ratio of test compound concentrations in plasma and blood. […]"}, "[4]": {"test": "In vivo pharmacokinetics in rats (i.v.)", "conditions": "Rat/male/Wistar, 0.5 mg/kg i.v., Plasma 95% + EtOH 4% + DMSO 1%", "procedure": "as §2, §3, §4, §5"}, "[5]": {"test": "In vivo pharmacokinetics in dogs (i.v.)", "conditions": "Dog/female/Beagle, 0.3 mg/kg i.v., PEG400 50% + Water 40% + EtOH 10%", "procedure": "as §2, §3, §4, §5"}}, "data": [{"smiles": "C[C@@H]1NC(=O)NN=C1c1ccc(-n2ccc(C(F)(F)F)n2)c(C(F)(F)F)c1", "note": "[Example 1, (5S)-5-methyl-6-{3-(trifluoromethyl)-4-[3-(trifluoromethyl)-1H-pyrazol-1-yl]phenyl}-4,5-dihydro-1,2,4-triazin-3(2H)-one]", "values": [{"measurement": "IC50", "setting": "[1]", "value": 91, "unit": "nM"}, {"measurement": "IC50", "setting": "[2]", "value": 81, "unit": "nM"}, {"measurement": "CLblood", "setting": "[3]", "value": 3, "unit": "mL/min/kg"}, {"measurement": "CLblood", "setting": "[4]", "value": 3.67, "unit": "mL/min/kg"}, {"measurement": "CLblood", "setting": "[5]", "value": 4.5, "unit": "mL/min/kg"}]}]}
